Experimental data published in patent publication US6815439B2, “Substituted aza-oxindole derivatives” (SmithKline Beecham Corporation, priority 1999, dated 2004).

Experiments:
Type in all cases: biochemical
[1] = target: CDK2 (Homo sapiens, UniProt P24941); assay: CDK2 substrate phosphorylation assay; settings: kinase inhibition, Table 3
Procedure: Cyclin dependent protein kinase assays utilized the peptides Biotin-aminohexyl-[…] and Biotin-aminohexyl-[…]-NH2 as phosphoryl group acceptors. CDK2 was expressed utilizing a baculovirus expression system and was partially purified to comprise 20-80% of total protein, with no detectable competing reactions present. Typically, assays were performed by incubating enzyme (0.2-10 nM), with and without inhibitor, one of the two peptide substrates ([…]), [γ-^32P]ATP ([…]), and 10-20 mM Mg^2+ for periods of time generally within the range 10-120 min. Reactions were terminated with 0.2-2 volumes of either 20% acetic acid or 50-100 mM EDTA buffered to pH 7 (substrate consumption <20%). The buffer employed in enzyme assays was either 30 mM HEPES 7.4 containing 0.15 M NaCl and 5% DMSO, the buffer 50 mM MOPS 7.0 containing 0.15 M NaCl and 5% DMSO, or the buffer 100 mM HEPES pH 7.5 containing 0.1 mg/mL BSA and 5% DMSO. Inhibitors were diluted in 100% DMSO prior to addition into the assay. Detection of peptide phosphorylation was accomplished by scintillation counting following either collection of peptide onto phosphocellulose filters (for reactions stopped with acetic acid), collection of peptide in wells of 96 well plates coated with Streptavidin (Pierce) (reactions were stopped with EDTA), or addition of Avidin coated Scintillant impregnated beads (Scintillation Proximity Assays from Amersham; reactions were stopped with EDTA).

[2] = target: T1, c-fms (Homo sapiens, UniProt P07333); assay: c-fms protein kinase assay; settings: kinase inhibition, Table 3
T1 construct: The c-fms intracellular domain was expressed from a baculovirus expression system; GST (N); made in house
T1 sequence (P07333 539-972 limits assumed): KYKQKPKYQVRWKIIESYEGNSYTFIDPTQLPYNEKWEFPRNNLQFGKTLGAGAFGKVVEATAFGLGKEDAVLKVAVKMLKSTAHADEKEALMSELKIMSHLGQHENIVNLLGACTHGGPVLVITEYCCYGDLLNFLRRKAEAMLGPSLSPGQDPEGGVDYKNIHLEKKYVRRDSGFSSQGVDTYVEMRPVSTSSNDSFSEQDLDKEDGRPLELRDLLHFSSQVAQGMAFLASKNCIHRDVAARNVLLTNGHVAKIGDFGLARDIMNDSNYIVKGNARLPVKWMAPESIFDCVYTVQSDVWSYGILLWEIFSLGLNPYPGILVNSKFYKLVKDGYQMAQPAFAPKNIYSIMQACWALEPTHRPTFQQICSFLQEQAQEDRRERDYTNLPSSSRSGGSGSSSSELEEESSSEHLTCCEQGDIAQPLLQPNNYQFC
Procedure: c-fms protein kinase assays utilized the peptide substrate, biotin-[…]-NH2 as the phosphoryl group acceptor. The c-fms intracellular domain was expressed from a baculovirus expression system, as an amino-terminal GST fusion protein, and purified to homogeneity using Glutathione agarose from Sigma Chemical Co. Maximum activation of the enzyme was achieved by preactivation at room temperature for 120 min in the presence of 100 μM ATP and 15 mM MgCl2, This enzyme stock was diluted to 150 nM prior to using in the assay. Typically assays were performed in white, opaque, 96-well plates in a 45 ul assay volume including 15 ul 6% DMSO, with or without compounds, 15 ul of the preactivated, diluted enzyme, and 15 ul of a substrate mixture. Reactions contained 50 mM HEPES, pH 7.5, 1.7 μM ATP, 15 mM MgCl2, 3 μM peptide, 2.5 mM DTT, 50 mM NaCl and 0.15 uCi/assay [□□^32P]ATP. The controls were reactions in the presence (negative controls) or absence (positive controls) of 50 mM EDTA. Reactions were allowed to proceed for 90 min at room temperature. The reaction products were quantified using Scintillation Proximity technolgy. The reactions were quenched by the addition of 200 ul of a solution containing 0.3 mg streptavidin SPA beads from Amersham, 50 mM EDTA, 0.1% TX-100, 50 uM ATP, in PBS, pH7.2 (phosphate buffered solution). Plates were sealed and counted in a Packard Topcount scintillation counter. IC50 values were obtained by fitting raw data to the equation y=Vmax*(1−(x/(k+x))).

[3] = target: T2, VEGFR-2 (Homo sapiens, UniProt P35968); assay: VEGFR-2 kinase assay; settings: kinase inhibition, Table 3; read-out: VEGFR2 (IC50)
T2 construct: The kinase domain of the enzyme was purified to homogeneity from a baculovirus expression system; made in house
T2 sequence (P35968 834-1162 limits assumed, species assumed): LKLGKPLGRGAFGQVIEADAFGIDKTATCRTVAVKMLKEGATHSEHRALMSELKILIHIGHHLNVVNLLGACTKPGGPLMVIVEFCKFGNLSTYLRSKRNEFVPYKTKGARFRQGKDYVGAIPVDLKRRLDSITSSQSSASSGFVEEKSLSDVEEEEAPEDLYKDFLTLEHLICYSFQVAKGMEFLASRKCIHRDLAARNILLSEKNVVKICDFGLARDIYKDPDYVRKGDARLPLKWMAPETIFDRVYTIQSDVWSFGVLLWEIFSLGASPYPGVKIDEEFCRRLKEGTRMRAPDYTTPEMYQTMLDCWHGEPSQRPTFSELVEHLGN
Procedure: The peptide substrate used in the VEGFR-2 assay was biotin-aminohexyl-[…]-NH2. The kinase domain of the enzyme was purified to homogeneity from a baculovirus expression system. The enzyme was preactivated on ice for 15 min in the presence of 100 μM ATP and 20 mM MgCl2, and stored at −80° C. until needed for assay. The activated enzyme was diluted to 0.4 nM into a 60 μl reaction containing 100 mM HEPES, pH 7.5, 5 μM ATP, 10 mM MgCl2, 5 μM peptide, 0.1 mM DTT, 0.05 mg/ml BSA, and an inhibitor at varying concentrations. The controls were reactions in the presence (negative controls) or absence (positive controls) of 50 mM EDTA. Reactions were incubated for 30 min at room temperature, and then quenched by the addition of EDTA to 60 mM in 210 μl. The quenched samples (190 μl) were transferred to a neutravidin-coated plate (Pierce) and incubated at room temperature for 40 min to allow biotinylated peptide to bind to the neutravidin. The unbound components of the reaction were removed by washing with a plate washer, then 200 μl HRP-PY20 anti-phosphotyrosine antibody conjugate was added to each well. After incubation for 40 min, the plate was washed to remove any unbound anitbody. A HRP substrate, K-blue (Neogen) was added and the reaction was quenched with Red Stop (Neogen) after 20 min. The absorbance of the wells was read at A650 in a plate reader. IC50 values were obtained by fitting raw data to A650=VMAX*(1−[I]/IC50+[I])))+b, where b is background.

Row | IC50 [1] [nM] | IC50 [2] [nM] | IC50 [3] [nM] | SMILES
1 | 10 to 100 | 1000 to 10000 | 100 to 1000 | CCOC(=O)c1cnc2c(c1)C(=CNc1ccc(S(N)(=O)=O)cc1)C(=O)N2 [Example 23, Ethyl 3-{[4-(aminosulfonyl)anilino]methylidene}-2-oxo-1,2-dihydro-3H-pyrrolo[2,3-b]pyridine-5-carboxylate]
2 | 10 to 100 | 1000 to 10000 | 10 to 100 | CCOC(=O)c1cnc2c(c1)C(=CNc1ccc3cn[nH]c3c1)C(=O)N2 [Example 24, Ethyl 3-[(1H-indazol-6-ylamino)methylidene]-2-oxo-1,2-dihydro-3H-pyrrolo[2,3-b]pyridine-5-carboxylate]
